Counter-ions that a name gives are not always drawn. Like-named read-outs stand apart in the source and are kept apart here.
How the values were obtained:
Experiment in all cases: AK assay 384-well format, Prestwick library screening
E. faecium = format: cell-based, Enterococcus faecium; conditions: 50 μM final drug concentration; for fold induction at 50 µM: Enterococcus faecium, 3 h
[1] = system: S. aureus strain USA300-0114; format: cell-based, Staphylococcus aureus; conditions: 50 μM final drug concentration; for fold induction at 50 µM: Staphylococcus aureus, USA300, 3 h
K. pneumoniae = format: cell-based, Klebsiella pneumoniae; conditions: 50 μM final drug concentration; for fold induction at 50 µM: Klebsiella pneumoniae, 3 h
[2] = system: A. baumannii strain 98-37-09; format: cell-based, Acinetobacter baumannii; conditions: 50 μM final drug concentration; for fold induction at 50 µM: Acinetobacter baumannii, 983709, 3 h
P. aeruginosa = format: cell-based, Pseudomonas aeruginosa; conditions: 50 μM final drug concentration; for fold induction at 50 µM: Pseudomonas aeruginosa, 3 h
E. cloacae = format: cell-based, Enterobacter cloacae; conditions: 50 μM final drug concentration; for fold induction at 50 µM: Enterobacter cloacae, 3 h
E. coli = format: cell-based, Escherichia coli; conditions: 50 μM final drug concentration; for fold induction at 50 µM: Escherichia coli, 3 h
[3] = planktonic E. faecium, cutoff for positive-scoring molecules 3-fold increase, read-out: AK-based Prestwick Library Screening Results, E. faecium (increase in extracellular AK activity)
[4] = planktonic S. aureus, cutoff for positive-scoring molecules 3-fold increase, read-out: AK-based Prestwick Library Screening Results, S. aureus (increase in extracellular AK activity)
[5] = planktonic K. pneumoniae, cutoff for positive-scoring molecules 3-fold increase, read-out: AK-based Prestwick Library Screening Results, K. pneumoniae (increase in extracellular AK activity)
[6] = planktonic A. baumannii, cutoff for positive-scoring molecules 3-fold increase, read-out: AK-based Prestwick Library Screening Results, A. baumannii (increase in extracellular AK activity)
[7] = planktonic P. aeruginosa, cutoff for positive-scoring molecules 3-fold increase, read-out: AK-based Prestwick Library Screening Results, P. aeruginosa (increase in extracellular AK activity)
[8] = planktonic E. cloacae, cutoff for positive-scoring molecules 3-fold increase, read-out: AK-based Prestwick Library Screening Results, E. cloacae (increase in extracellular AK activity)
[9] = planktonic E. coli, cutoff for positive-scoring molecules 3-fold increase, read-out: AK-based Prestwick Library Screening Results, E. coli (increase in extracellular AK activity)
[10] = cutoff for positive-scoring molecules 3-fold increase
[11] = planktonic, cutoff for positive-scoring molecules 3-fold increase

## CN(C)C(=O)Oc1cc(OC(=O)N(C)C)cc(C(O)CNC(C)(C)C)c1 (stereo not shown) [Bambuterol hydrochloride]
E. faecium; [3]
  fold induction at 50 µM: 1.1
[1]; [4]
  fold induction at 50 µM: 1.2
K. pneumoniae; [5]
  fold induction at 50 µM: 0.9
[2]; [6]
  fold induction at 50 µM: 1
P. aeruginosa; [7]
  fold induction at 50 µM: 1.2
E. cloacae; [8]
  fold induction at 50 µM: 1.2
E. coli; [9]
  fold induction at 50 µM: 1.3

## CNCC(O)c1ccc(OC(=O)C(C)(C)C)c(OC(=O)C(C)(C)C)c1 (stereo not shown) [Dipivefrin hydrochloride]
E. faecium; planktonic, cutoff for positive 3-fold increase, read-out: AK-based Prestwick Library Screening Results, E. faecium (fold increase in extracellular AK activity)
  fold induction at 50 µM: 1
[1]; planktonic, cutoff for positive 3-fold increase, read-out: AK-based Prestwick Library Screening Results, S. aureus (fold increase in extracellular AK activity)
  fold induction at 50 µM: 1.2
K. pneumoniae; planktonic, cutoff for positive 3-fold increase, read-out: AK-based Prestwick Library Screening Results, K. pneumoniae (fold increase in extracellular AK activity)
  fold induction at 50 µM: 1.3
[2]; planktonic, cutoff for positive 3-fold increase, read-out: AK-based Prestwick Library Screening Results, A. baumannii (fold increase in extracellular AK activity)
  fold induction at 50 µM: 1.4
P. aeruginosa; planktonic, cutoff for positive 3-fold increase, read-out: AK-based Prestwick Library Screening Results, P. aeruginosa (fold increase in extracellular AK activity)
  fold induction at 50 µM: 1.3
E. cloacae; planktonic, cutoff for positive 3-fold increase, read-out: AK-based Prestwick Library Screening Results, E. cloacae (fold increase in extracellular AK activity)
  fold induction at 50 µM: 1.6
E. coli; planktonic, […], read-out: AK-based Prestwick Library Screening Results, E. coli (fold increase in extracellular AK activity)
  fold induction at 50 µM: 1.4

## CC[C@H](C)C(=O)O[C@H]1C[C@@H](C)C=C2C=C[C@H](C)[C@H](CC[C@@H]3C[C@@H](O)CC(=O)O3)[C@H]21 [Lovastatin]
E. faecium; [3]
  fold induction at 50 µM: 1
[1]; [4]
  fold induction at 50 µM: 0.3
K. pneumoniae; [5]
  fold induction at 50 µM: 0.8
[2]; [6]
  fold induction at 50 µM: 1
P. aeruginosa; [7]
  fold induction at 50 µM: 0.8
E. cloacae; [8]
  fold induction at 50 µM: 1.2
E. coli; [9]
  fold induction at 50 µM: 1

## Nc1ncn([C@@H]2O[C@H](CO)[C@@H](O)[C@H]2O)c(=O)n1 [Azacytidine-5]
E. faecium; [10]
  AK-based Prestwick Library Screening Results, E. faecium (fold increase in extracellular AK activity): 1.0
[1]; [10]
  AK-based Prestwick Library Screening Results, S. aureus (fold increase in extracellular AK activity): 1.2
K. pneumoniae; [10]
  AK-based Prestwick Library Screening Results, K. pneumoniae (fold increase in extracellular AK activity): 0.9
[2]; [10]
  AK-based Prestwick Library Screening Results, A. baumannii (fold increase in extracellular AK activity): 1.4
P. aeruginosa; [10]
  AK-based Prestwick Library Screening Results, P. aeruginosa (fold increase in extracellular AK activity): 1.2
E. cloacae; [10]
  AK-based Prestwick Library Screening Results, E. cloacae (fold increase in extracellular AK activity): 1.5
E. coli; [10]
  AK-based Prestwick Library Screening Results, E. coli (fold increase in extracellular AK activity): 2.2

## C[C@H]1NC(=O)NC1=O [Methylhydantoin-5-(D)]
E. faecium; [10]
  AK-based Prestwick Library Screening Results, E. faecium (fold increase in extracellular AK activity): 1.0
[1]; [10]
  AK-based Prestwick Library Screening Results, S. aureus (fold increase in extracellular AK activity): 1.2
K. pneumoniae; [10]
  AK-based Prestwick Library Screening Results, K. pneumoniae (fold increase in extracellular AK activity): 1.1
[2]; [10]
  AK-based Prestwick Library Screening Results, A. baumannii (fold increase in extracellular AK activity): 1.3
P. aeruginosa; [10]
  AK-based Prestwick Library Screening Results, P. aeruginosa (fold increase in extracellular AK activity): 1.2
E. cloacae; [10]
  AK-based Prestwick Library Screening Results, E. cloacae (fold increase in extracellular AK activity): 1.5
E. coli; […]
  AK-based Prestwick Library Screening Results, E. coli (fold increase in extracellular AK activity): 1.2

## COc1ccc(C(=O)c2ccccc2)c(O)c1 [Oxybenzone]
E. faecium; planktonic, cutoff for positive-scoring molecules 3-fold increase, read-out: AK-based Prestwick Library Screening Results, E. faecium (fold increase in extracellular AK activity)
  fold induction at 50 µM: 0.7
[1]; planktonic, cutoff for positive-scoring molecules 3-fold increase, read-out: AK-based Prestwick Library Screening Results, S. aureus (fold increase in extracellular AK activity)
  fold induction at 50 µM: 0.4
K. pneumoniae; planktonic, cutoff for positive-scoring molecules 3-fold increase, read-out: AK-based Prestwick Library Screening Results, K. pneumoniae (fold increase in extracellular AK activity)
  fold induction at 50 µM: 0.4
[2]; planktonic, cutoff for positive-scoring molecules 3-fold increase, read-out: AK-based Prestwick Library Screening Results, A. baumannii (fold increase in extracellular AK activity)
  fold induction at 50 µM: 0.4
P. aeruginosa; planktonic, cutoff for positive-scoring molecules 3-fold increase, read-out: AK-based Prestwick Library Screening Results, P. aeruginosa (fold increase in extracellular AK activity)
  fold induction at 50 µM: 0.5
E. cloacae; planktonic, cutoff for positive-scoring molecules 3-fold increase, read-out: AK-based Prestwick Library Screening Results, E. cloacae (fold increase in extracellular AK activity)
  fold induction at 50 µM: 0.6
E. coli; planktonic, cutoff for positive-scoring molecules 3-fold increase, read-out: AK-based Prestwick Library Screening Results, E. coli (fold increase in extracellular AK activity)
  fold induction at 50 µM: 0.5

## Beta-Escin
E. faecium; [11]
  AK-based Prestwick Library Screening Results, E. faecium (fold increase in extracellular AK activity): 0.9
[1]; [11]
  AK-based Prestwick Library Screening Results, S. aureus (fold increase in extracellular AK activity): 0.8
K. pneumoniae; [11]
  AK-based Prestwick Library Screening Results, K. pneumoniae (fold increase in extracellular AK activity): 0.7
[2]; [11]
  AK-based Prestwick Library Screening Results, A. baumannii (fold increase in extracellular AK activity): 0.8
P. aeruginosa; [11]
  AK-based Prestwick Library Screening Results, P. aeruginosa (fold increase in extracellular AK activity): 0.7
E. cloacae; [11]
  AK-based Prestwick Library Screening Results, E. cloacae (fold increase in extracellular AK activity): 1.4
E. coli; [11]
  AK-based Prestwick Library Screening Results, E. coli (fold increase in extracellular AK activity): 0.9

## CCN(CC)CCOC(=O)C1(c2ccc([N+](=O)[O-])cc2)CCCC1.Cl [Nitrocaramiphen hydrochloride]
E. faecium; planktonic E. faecium, […]
  AK-based Prestwick library screening result, E. faecium (fold increase in extracellular AK activity): 0.9
[1]; planktonic S. aureus, […]
  AK-based Prestwick library screening result, S. aureus (fold increase in extracellular AK activity): 0.6
K. pneumoniae; planktonic K. pneumoniae, […]
  AK-based Prestwick library screening result, K. pneumoniae (fold increase in extracellular AK activity): 0.7
[2]; planktonic A. baumannii, […]
  AK-based Prestwick library screening result, A. baumannii (fold increase in extracellular AK activity): 0.7
P. aeruginosa; planktonic P. aeruginosa, […]
  AK-based Prestwick library screening result, P. aeruginosa (fold increase in extracellular AK activity): 0.8
E. cloacae; planktonic E. cloacae, […]
  AK-based Prestwick library screening result, E. cloacae (fold increase in extracellular AK activity): 1.2
E. coli; planktonic E. coli, […]
  AK-based Prestwick library screening result, E. coli (fold increase in extracellular AK activity): 0.9

## CN(C)CCOC(C)(c1ccccc1)c1ccccn1 (stereo not shown) [Doxylamine succinate]
E. faecium; 384-well format, cutoff for positive-scoring molecules 3-fold increase, read-out: AK-based Prestwick Library Screening Results, E. faecium (increase in extracellular AK activity)
  fold induction at 50 µM: 0.9
[1]; 384-well format, cutoff for positive-scoring molecules 3-fold increase, read-out: AK-based Prestwick Library Screening Results, S. aureus (increase in extracellular AK activity)
  fold induction at 50 µM: 0.7
K. pneumoniae; 384-well format, cutoff for positive-scoring molecules 3-fold increase, read-out: AK-based Prestwick Library Screening Results, K. pneumoniae (increase in extracellular AK activity)
  fold induction at 50 µM: 0.6
[2]; 384-well format, cutoff for positive-scoring molecules 3-fold increase, read-out: AK-based Prestwick Library Screening Results, A. baumannii (increase in extracellular AK activity)
  fold induction at 50 µM: 0.8
P. aeruginosa; 384-well format, cutoff for positive-scoring molecules 3-fold increase, read-out: AK-based Prestwick Library Screening Results, P. aeruginosa (increase in extracellular AK activity)
  fold induction at 50 µM: 0.8
E. cloacae; 384-well format, cutoff for positive-scoring molecules 3-fold increase, read-out: AK-based Prestwick Library Screening Results, E. cloacae (increase in extracellular AK activity)
  fold induction at 50 µM: 1
E. coli; 384-well format, cutoff for positive-scoring molecules 3-fold increase, read-out: AK-based Prestwick Library Screening Results, E. coli (increase in extracellular AK activity)
  fold induction at 50 µM: 0.8

## OC(CCN1CCCC1)(c1ccccc1)C1CCCCC1 (stereo not shown) [Procyclidine hydrochloride]
E. faecium; cutoff for positive-scoring molecules 3-fold increase, read-out: AK-based Prestwick Library Screening Results, E. faecium (fold increase in extracellular AK activity)
  fold induction at 50 µM: 1.1
[1]; cutoff for positive-scoring molecules 3-fold increase, read-out: AK-based Prestwick Library Screening Results, S. aureus (fold increase in extracellular AK activity)
  fold induction at 50 µM: 1.2
K. pneumoniae; cutoff for positive-scoring molecules 3-fold increase, read-out: AK-based Prestwick Library Screening Results, K. pneumoniae (fold increase in extracellular AK activity)
  fold induction at 50 µM: 0.9
[2]; cutoff for positive-scoring molecules 3-fold increase, read-out: AK-based Prestwick Library Screening Results, A. baumannii (fold increase in extracellular AK activity)
  fold induction at 50 µM: 1.1
P. aeruginosa; cutoff for positive-scoring molecules 3-fold increase, read-out: AK-based Prestwick Library Screening Results, P. aeruginosa (fold increase in extracellular AK activity)
  fold induction at 50 µM: 1.2
E. cloacae; cutoff for positive-scoring molecules 3-fold increase, read-out: AK-based Prestwick Library Screening Results, E. cloacae (fold increase in extracellular AK activity)
  fold induction at 50 µM: 1.8
E. coli; cutoff for positive-scoring molecules 3-fold increase, read-out: AK-based Prestwick Library Screening Results, E. coli (fold increase in extracellular AK activity)
  fold induction at 50 µM: 1.4

— patent publication US10004701B2, “Methods and compositions for treating infection” (UNIVERSITY OF ROCHESTER, priority 2012, dated 2018)
